tested on: HCV replicon; experiment: HCV replicon assay (FRET or luciferase reporter); assay type: cell-based; conditions: Hepatitis C virus; HCV replicon cells; Table 1
Excerpt: FRET Assay Preparation. To perform the HCV FRET screening assay, 96-well cell culture plates were used. The FRET peptide (Anaspec, Inc.) (Taliani et al., Anal. Biochem. 1996, 240, 60-67) contains a fluorescence donor, EDANS, near one end of the peptide and an acceptor, DABCYL, near the other end. The fluorescence of the peptide is quenched by […] resonance energy transfer (RET) between the donor and the acceptor, but as the NS3 protease cleaves the peptide the products are released from RET quenching and the fluorescence of the donor becomes apparent. The assay reagent was made as follows: 5X cell Luciferase cell culture lysis reagent from Promega (#E153A) diluted to 1X with dH2O, NaCl added to 150 mM final, the FRET peptide diluted to 20 µM final from a 2 mM stock.
To prepare plates, HCV replicon cells, with or without a Renilla luciferase reporter gene, were trypsinized and placed into each well of a 96-well plate with titrated test compounds added in columns 3 through 12; columns 1 and 2 contained a control compound (HCV protease inhibitor), and the bottom row contained cells without compound. The plates were then placed in a CO2 incubator at 37 °C.
Assays. Subsequent to addition of the test compounds described above (FRET Assay Preparation), at various times the plate was removed and Alamar blue solution (Trek Diagnostics, #00-100) was added per well as a measure of cellular toxicity. After reading in a Cytoflour 4000 instrument (PE Biosystems), plates were rinsed with PBS and then used for FRET assay by the addition of 30 ul of the FRET peptide assay reagent described above (FRET Assay Preparation) per well. The plate was then placed into the Cytoflour 4000 instrument which had been set to 340 excite/490 emission, automatic mode for 20 cycles and the plate read in a kinetic mode. Typically, the signal to noise using an endpoint analysis after the reads was at least three-fold. Alternatively, after Alamar blue reading, plates were rinsed with PBS, 50 ul of DMEM (high glucose) without phenol red was added and plates were then used for luciferase assay using the Promega Dual-Glo Luciferase Assay System.
Compound analysis was determined by quantification of the relative HCV replicon inhibition and the relative cytotoxicity values. To calculate cytoxicity values, the average Alamar Blue fluorescence signals from the control wells were set as 100% non-toxic. The individual signals in each of the compound test wells were then divided by the average control signal and multiplied by 100% to determine […]. To calculate the HCV replicon inhibition values, an average background value was obtained from the two wells containing the highest amount of HCV protease inhibitor at the end of the assay period. These numbers were similar to those obtained from naive Huh-7 cells.
The background numbers were then subtracted from the average signal obtained from the control wells and this number was used as 100% activity. The individual signals in each of the compound test wells were then divided by the averaged control values after background subtraction and multiplied by 100% to determine percent activity. EC50 values for a protease inhibitor titration were calculated as the concentration which caused a 50% reduction in FRET or luciferase activity. The two numbers generated for the compound plate, percent cytoxicity and percent activity were used to determine compounds of interest for further analysis.
HCV Replicon Luciferase Reporter Assay
The HCV replicon luciferase assay was developed to monitor the inhibitory effects of compounds described in the disclosure on HCV viral replication. Utilization of a replicon luciferase reporter assay was first described by Krieger et al (Krieger N, Lohmann V, and Bartenschlager R, J. Virol. 75(10):4614-4624 (2001)). […]

SMILES	EC50 [µM]
CNC(=O)c1c(-c2ccc(F)cc2)nn2ccc(-c3cc(C(=O)NC4(c5cnccn5)CC4)c(OC)cc3C)c(F)c12 [4-fluoro-2-(4-fluorophenyl)-5-(4-methoxy-2-methyl-5-(1-(pyrazin-2-yl)cyclopropylcarbamoyl)phenyl)-N-methylpyrazolo[1,5-a]pyridine-3-carboxamide]	0.002 to 0.25
CNC(=O)c1c(-c2ccc(F)cc2)nn2ccc(-c3cc(C(=O)NC4(c5ccnnc5)CC4)c(OC)cc3C)c(F)c12 [4-fluoro-2-(4-fluorophenyl)-5-(4-methoxy-2-methyl-5-(1-(pyridazin-4-yl)cyclopropylcarbamoyl)phenyl)-N-methylpyrazolo[1,5-a]pyridine-3-carboxamide]	1 to 10
CNC(=O)c1c(-c2ccc(F)cc2)nn2ccc(-c3cc(C(=O)NC4(c5cc(F)ccn5)CC4)c(OC)nc3C)c(F)c12 [4-fluoro-2-(4-fluorophenyl)-5-(5-(1-(4-fluoropyridin-2-yl)cyclopropylcarbamoyl)-6-methoxy-2-methylpyridin-3-yl)-N-methylpyrazolo[1,5-a]pyridine-3-carboxamide]	0.002 to 0.25
CNC(=O)c1c(-c2ccc(F)cc2)nn2ccc(-c3cc(C(=O)NC4(c5nccc(O)n5)CC4)c(OC)cc3C)c(F)c12 [4-fluoro-2-(4-fluorophenyl)-5-(5-(1-(4-hydroxypyrimidin-2-yl)cyclopropylcarbamoyl)-4-methoxy-2-methylphenyl)-N-methylpyrazolo[1,5-a]pyridine-3-carboxamide]	1 to 10
CNC(=O)c1c(-c2ccc(F)cc2)nn2ccc(-c3cc(C(=O)NC4(c5ccccn5)CC4)c(OC)nc3C)c(F)c12 [4-fluoro-2-(4-fluorophenyl)-5-(6-methoxy-2-methyl-5-(1-(pyridin-2-yl)cyclopropylcarbamoyl)pyridin-3-yl)-N-methylpyrazolo[1,5-a]pyridine-3-carboxamide]	0.002 to 0.25
CNC(=O)c1c(-c2ccc(F)cc2)nn2ccc(-c3cc(C(=O)NC4(c5ccccc5)CC4)c(OC)nc3C)c(F)c12 [4-fluoro-2-(4-fluorophenyl)-5-(6-methoxy-2-methyl-5-(1-phenylcyclopropylcarbamoyl)pyridin-3-yl)-N-methylpyrazolo[1,5-a]pyridine-3-carboxamide]	0.002 to 0.25
CNC(=O)c1c(-c2ccc(F)cc2)nn2ccc(-c3cc(C(=O)NC4(c5ccccn5)CC4)c(OCC4CCOCC4)nc3C)c(F)c12 [4-fluoro-2-(4-fluorophenyl)-N-methyl-5-(2-methyl-5-(1-(pyridin-2-yl)cyclopropylcarbamoyl)-6-((tetrahydro-2H-pyran-4-yl)methoxy)pyridin-3-yl)pyrazolo[1,5-a]pyridine-3-carboxamide]	0.002 to 0.25
CNC(=O)c1c(-c2ccc(F)cc2)nn2ccc(-c3cc(C(=O)NC4(c5ncccn5)CC4)c(OCC4CCOCC4)nc3C)c(F)c12 [4-fluoro-2-(4-fluorophenyl)-N-methyl-5-(2-methyl-5-(1-(pyrimidin-2-yl)cyclopropylcarbamoyl)-6-((tetrahydro-2H-pyran-4-yl)methoxy)pyridin-3-yl)pyrazolo[1,5-a]pyridine-3-carboxamide]	0.002 to 0.25
CNC(=O)c1c(-c2ccc(F)cc2)nn2ccc(-c3cc(C(=O)NC4(c5ccccn5)CC4)c(OC(F)F)nc3C)c(F)c12 [5-(6-(difluoromethoxy)-2-methyl-5-(1-(pyridin-2-yl)cyclopropylcarbamoyl)pyridin-3-yl)-4-fluoro-2-(4-fluorophenyl)-N-methylpyrazolo[1,5-a]pyridine-3-carboxamide]	0.002 to 0.25
CNC(=O)c1c(-c2ccc(F)cc2)nn2ccc(-c3cc(C(=O)NC4(c5ccccc5)CC4)c(OC(F)F)nc3C)c(F)c12 [5-(6-(difluoromethoxy)-2-methyl-5-(1-phenylcyclopropylcarbamoyl)pyridin-3-yl)-4-fluoro-2-(4-fluorophenyl)-N-methylpyrazolo[1,5-a]pyridine-3-carboxamide]	0.002 to 0.25

tested on: HCV; experiment: not given; conditions: extended dosing of the combination regimens; development suspended; cited from earlier work

SMILES	hepatic toxicity
CNC(=O)c1c(-c2ccc(F)cc2)oc2cc(N(CCO)S(C)(=O)=O)c(C3CC3)cc12 [HCV-796]	hepatic toxicity observed
